Molecular target: ATP-dependent translocase ABCB1 (Homo sapiens, UniProt P08183)
Experiment: TP_TRANSPORTER: transepithelial transport (basal to apical) in MDR1-expressing LLC-PK1 cells
Assay type: functional, cell-based
Settings: pig

Chain of ATP-dependent translocase ABCB1 (P08183 whole entry): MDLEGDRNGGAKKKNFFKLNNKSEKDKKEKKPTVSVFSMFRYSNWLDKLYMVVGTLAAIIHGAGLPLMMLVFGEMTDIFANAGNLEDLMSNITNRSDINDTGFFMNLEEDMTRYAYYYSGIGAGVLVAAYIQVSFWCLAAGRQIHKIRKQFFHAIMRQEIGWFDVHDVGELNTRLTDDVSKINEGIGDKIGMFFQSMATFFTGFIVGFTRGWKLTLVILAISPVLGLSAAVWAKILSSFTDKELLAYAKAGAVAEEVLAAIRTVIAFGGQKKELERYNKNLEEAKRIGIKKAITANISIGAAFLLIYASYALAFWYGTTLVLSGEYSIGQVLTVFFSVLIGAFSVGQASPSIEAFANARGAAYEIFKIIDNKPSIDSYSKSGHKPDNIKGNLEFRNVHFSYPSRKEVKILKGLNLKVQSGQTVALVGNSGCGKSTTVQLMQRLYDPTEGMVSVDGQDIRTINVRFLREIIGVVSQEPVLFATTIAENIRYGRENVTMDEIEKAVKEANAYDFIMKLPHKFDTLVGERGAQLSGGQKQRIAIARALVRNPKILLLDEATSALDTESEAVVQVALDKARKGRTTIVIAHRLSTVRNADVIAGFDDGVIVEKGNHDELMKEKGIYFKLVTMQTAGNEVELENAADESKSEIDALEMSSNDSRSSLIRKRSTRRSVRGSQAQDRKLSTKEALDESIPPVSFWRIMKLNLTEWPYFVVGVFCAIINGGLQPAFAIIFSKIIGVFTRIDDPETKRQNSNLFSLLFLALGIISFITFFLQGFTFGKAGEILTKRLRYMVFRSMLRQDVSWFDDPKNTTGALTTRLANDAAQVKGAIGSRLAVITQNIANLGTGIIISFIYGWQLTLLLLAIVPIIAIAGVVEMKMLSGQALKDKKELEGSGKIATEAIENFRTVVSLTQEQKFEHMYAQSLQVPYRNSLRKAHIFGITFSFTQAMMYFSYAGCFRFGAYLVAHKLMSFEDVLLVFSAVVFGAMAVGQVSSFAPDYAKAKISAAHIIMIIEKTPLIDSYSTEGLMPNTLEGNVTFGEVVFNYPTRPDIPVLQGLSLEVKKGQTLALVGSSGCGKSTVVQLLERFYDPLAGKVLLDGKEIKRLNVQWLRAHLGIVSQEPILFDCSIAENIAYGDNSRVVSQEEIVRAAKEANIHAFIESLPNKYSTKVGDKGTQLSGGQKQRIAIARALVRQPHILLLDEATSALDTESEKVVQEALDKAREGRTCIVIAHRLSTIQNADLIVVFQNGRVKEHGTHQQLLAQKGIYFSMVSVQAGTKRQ

Row | SMILES | Activity
1 | C/C=C/C[C@@H](C)C(=O)[C@H]1C(=O)N[C@@H](C(C)C)C(=O)N(C)CC(=O)N(C)[C@@H](CC(C)C)C(=O)N[C@@H](C(C)C)C(=O)N(C)[C@@H](CC(C)C)C(=O)N[C@@H](C)C(=O)N[C@H](C)C(=O)N(C)[C@@H](CC(C)C)C(=O)N(C)[C@@H](CC(C)C)C(=O)N(C)[C@@H](C(C)C)C(=O)N1C [VALSPODAR] | is not a substrate [-]
2 | COc1cccc2c1C(=O)c1c(O)c3c(c(O)c1C2=O)C[C@@](O)(C(=O)CO)C[C@@H]3O[C@H]1C[C@H](N)[C@H](O)[C@H](C)O1 [DOXORUBICIN] | substrate [+]

Source: ChEMBL document CHEMBL2073840, “Inhibitory effects of a cyclosporin derivative, SDZ PSC 833, on transport of doxorubicin and vinblastine via human P-glycoprotein” (Jpn J Cancer Res, 1998)
